From ChEMBL document CHEMBL4130388, “Recent advances of pyrazole-containing derivatives as anti-tubercular agents” (Eur J Med Chem, 2017)
Values after ≈ are worked out from the molar mass of the structure shown.

How the values were obtained:
[1] = system: Mycobacterium tuberculosis; assay: Potency index, ratio of pyrazinamide MIC to compound MIC for Mycobacterium tuberculosis H37Rv; format: functional
[2] = system: Mycobacterium tuberculosis; assay: Antitubercular activity against Mycobacterium tuberculosis H37Rv; format: functional
[3] = system: Mycobacterium tuberculosis; assay: Antitubercular activity against Mycobacterium tuberculosis H37Rv ATCC 27294 at 6.25 ug/ml by BACTEC radiometric method relative to control; format: functional
[4] = system: Mycobacterium tuberculosis; assay: Growth inhibition of Mycobacterium tuberculosis H37Rv ATCC 27294 at 6.25 ug/ml by BACTEC radiometric method relative to control; format: functional; settings: read-out: GI
[5] = system: Mycobacterium tuberculosis; assay: Growth inhibition of Mycobacterium tuberculosis H37Rv at 62.5 ug/ml by broth dilution method relative to control; format: functional; settings: read-out: GI
[6] = biological target: T1, Enoyl-[acyl-carrier-protein] reductase [NADH] (Mycobacterium tuberculosis, UniProt P9WGR1); assay: Inhibition of Mycobacterium tuberculosis InhA using DDCoA as substrate in presence of NADH by fluorimetric method
T1 sequence (P9WGR1 whole entry): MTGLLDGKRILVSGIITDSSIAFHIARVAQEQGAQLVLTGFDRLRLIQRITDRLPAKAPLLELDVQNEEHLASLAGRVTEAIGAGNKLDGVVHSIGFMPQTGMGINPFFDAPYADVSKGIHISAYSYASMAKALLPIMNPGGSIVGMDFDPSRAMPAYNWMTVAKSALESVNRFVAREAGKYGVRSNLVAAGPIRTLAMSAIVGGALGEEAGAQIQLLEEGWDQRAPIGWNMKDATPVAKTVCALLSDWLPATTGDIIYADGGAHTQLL

Pantothenate synthetase = biological target: T2, Pantothenate synthetase (Mycobacterium tuberculosis, UniProt P9WIL5); assay: Inhibition of Mycobacterium tuberculosis pantothenate synthetase
T2 sequence (P9WIL5 whole entry): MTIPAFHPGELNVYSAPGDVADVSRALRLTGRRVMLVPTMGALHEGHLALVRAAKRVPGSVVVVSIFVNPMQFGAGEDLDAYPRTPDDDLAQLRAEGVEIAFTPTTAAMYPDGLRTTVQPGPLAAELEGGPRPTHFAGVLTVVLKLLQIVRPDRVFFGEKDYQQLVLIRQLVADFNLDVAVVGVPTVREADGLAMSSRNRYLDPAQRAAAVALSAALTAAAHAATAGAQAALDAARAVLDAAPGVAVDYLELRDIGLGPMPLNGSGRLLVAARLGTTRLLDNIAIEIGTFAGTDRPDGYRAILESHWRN

[7] = system: Mycobacterium tuberculosis; assay: Antitubercular activity against Mycobacterium tuberculosis spec.192; format: functional
[8] = system: Mycobacterium tuberculosis; assay: Antitubercular activity against Mycobacterium tuberculosis spec.210; format: functional
[9] = system: Mycobacterium tuberculosis; assay: Potency index, ratio of pyrazinamide MIC to compound MIC for Mycobacterium tuberculosis; format: functional
[10] = system: Mycobacterium tuberculosis; assay: Antitubercular activity against Mycobacterium tuberculosis; format: functional
[11] = system: Mycobacterium tuberculosis; assay: Antitubercular activity against Mycobacterium tuberculosis H37Rv by broth dilution method; format: functional
[12] = system: Mycobacterium tuberculosis; assay: Antitubercular activity against Mycobacterium tuberculosis H37Rv by Lowensteine-Jensen method; format: functional

Cc1cc(-n2nc(C(=O)NCC(F)(F)F)cc2-c2cccnc2)c2cccc(C(F)(F)F)c2n1
Ratio [1]: 16
MIC [2]: 3.13 µg/mL

Cc1cc(-n2nc(C(=O)NCc3ccc(OC(F)(F)F)cc3)cc2-c2cccnc2)c2cccc(C(F)(F)F)c2n1
Ratio [1]: 16
MIC [2]: 3.13 µg/mL

COc1nc2ccc(Br)cc2c2c1C(C)(OCC(O)Cn1ccc(-c3ccc(C)c(C)c3)n1)c1ccccc1-2 (stereo unspecified)
MIC99 [3]: 5 µM (≈ 2.92 µg/mL)
inhibition of growth at 6.25 µg/mL [4]: 40 to 88%

Cc1nn(-c2ccccc2)c2c1C(c1cccc([N+](=O)[O-])c1)c1c(N)nc(=O)[nH]c1O2 (stereo unspecified)
inhibition of growth at 62.5 µg/mL [5]: 98%

Cc1cc(C)n(Cc2ccc(C(=O)NCc3ccc(F)cc3Cl)cc2)n1
IC50 [6]: 40 nM

COc1ccc(-n2cc(Cn3ncc4c3CCN(C(=O)Nc3ccccc3)C4)nn2)cc1
IC50 (Pantothenate synthetase): 1010 nM
MIC [7]: 24.7 µM (≈ 10.6 µg/mL)
MIC [8]: 24.7 µM (≈ 10.6 µg/mL)
MIC [2]: 24.7 µM

Fc1ccc(-c2nnc(-c3n[nH]cc3-c3ccc(Cl)cc3)o2)cc1
Ratio [9]: 4
MIC [10]: 25 µg/mL (≈ 73.4 µM)

N#Cc1ccc(-c2nnc(-c3n[nH]cc3-c3ccc(Cl)cc3)o2)cc1
Ratio [9]: 4
MIC [10]: 25 µg/mL (≈ 71.9 µM)

NNC(=O)c1ccncc1 [ISONIAZID]
MIC [11]: 0.03 µg/mL (≈ 0.219 µM)
MIC99 [3]: 1.86 µM (≈ 0.255 µg/mL)
MIC [12]: 0.2 to 4 µg/mL (≈ 1.46 to 29.2 µM)
MIC [2]: 0.03 µg/mL

Cc1nn(-c2ccccc2)c2c1C(c1cccc([N+](=O)[O-])c1)c1c(nc[nH]c1=O)O2 (stereo unspecified)
inhibition of growth at 62.5 µg/mL [5]: 98%
